PMC4014703 (Pharmaceuticals, 2014)
Where a SMILES comes first, the peptide text is derived from it. Side-chain parts run from the residue outwards. [ ]: non-standard residue; d: D form. The star is where a group is joined. DOTA = O=C(O)CN1CCN(CC(=O)O)CCN(CC(=O)*)CCN(CC(=O)O)CC1; PEG6 = NCCOCCOCCOCCOCCOCCOCCC(=O)O; Tle = CC(C)(C)[C@H](N)C(=O)O; Nlys = NCCCCNCC(=O)O

What was measured:
in vivo = assay: in vivo; set-up: species or system nude mice; settings: nude, mouse, total radioactivity
Description: 10–14 days after inoculation of the HT29 cells (tumor weight: 200–700 mg), the mice (about 10–12 weeks old with about 35–40 g body weight) were used for biodistribution studies. […] They were sacrificed by cervical dislocation 1 h, 4 h and 24 h after injection. Tumors and other tissues (blood, lung, liver, kidneys, heart, spleen, brain, muscle, femur and intestine) were rapidly removed and weighed. Radioactivity of the dissected tissues was measured using a gamma counter (Wallac Wizard, Perkin Elmer). Results were expressed as percentage of injected dose per gram of tissue (% ID/g), and tumor-to-organ ratios were calculated. Two randomly chosen mice were used for the determination of nonspecific tracer uptake in vivo. […] These mice were sacrificed by cervical dislocation at 4 h post injection (p.i.) and organs and tissue were removed, weighed and counted as described above.

tumor = settings: ^188Re-labeled peptide, day 6 after begin of treatment; cited from earlier work

Row | tissue to tissue ratio at 1 h (in vivo; iv) | tissue to tissue ratio at 24 h (in vivo; iv) | tissue uptake at 1 h (in vivo; iv) | tissue uptake at 24 h (in vivo; iv) | tissue uptake at 24 h (in vivo; iv, Accumulation in HT29 tumor) | tissue uptake at 1 h (in vivo; iv, Accumulation in kidney) | tissue uptake at 24 h (in vivo; iv, Radioactivity concentration in liver) | tissue uptake at 4 h (in vivo; Accumulation in HT29 tumor) | Molecule | Tumor growth in tumor-bearing nude mice (tumor)
1 | 30 | 60 | 0.05 %ID/g | 0.01 %ID/g | 0.6 %ID/g | 38 ± 1 %ID/g | 0.4 %ID/g | 1.1 %ID/g | CC(C)C[C@H](NC(=O)[C@@H](NC(=O)[C@H](Cc1ccc(O)cc1)NC(=O)[C@@H]1CCCN1C(=O)[C@H](CCCCN)NC(=O)CN(CCCCN)C(=O)[C@@H](N)CCCCNC(=O)CCOCCOCCOCCOCCOCCOCCNC(=O)CN1CCN(CC(=O)O)CCN(CC(=O)O)CCN(CC(=O)O)CC1)C(C)(C)C)C(=O)O [[^177Lu]NT127, metal not drawn] (H-K([PEG6-DOTA])[Nlys]KPY[Tle]L-OH) | –
2 | – | – | – | – | – | – | – | – | (N^αHis)Ac-Arg-(N-CH3)-Arg-Pro-Dmt-Tle-Leu [NT-XIX] | decreased
